Source: patent publication US5212171A, “Pesticidal heterocyclic compounds” (priority 1990, dated 1993)

Tested on: Spodoptera littoralis
Assay: whole plant or invertebrate
Assay type: in vivo, Spodoptera littoralis (Egyptian cotton leafworm)
Settings: 168 h, initial test concentration of 0.1% w (1000 ppm), 7 days, read-out: mortality grade S.l.
Method: (§1) Insecticidal activity of compounds of general formula I was assessed against the following pests: […]
Spodoptera littoralis (Egyptian cotton leafworm)
The test methods employed for each species appear below. In each test, unless otherwise stated, solutions or suspensions of test compound were made up over a range of concentrations in water (initially 0.1% w) containing 10%w acetone and 0.025% w "TRITON X-100" (trade mark) surface active agent (the condensation product of ethylene oxide with an alkyl phenol). These solutions were sprayed at a rate equivalent to 340 liters per hectare (3.4×10^-5 m^3 /m^2) onto Petri dishes containing either test species per se or diet onto which test species were subsequently introduced, as indicated. In some assays leaf discs infested with test species were sprayed whilst other assays involved the spraying of plants which were infested subsequently with test species after the spray solution had dried. […]
Mortality assessments were made as indicated below, in terms of percentage mortality figures. In each test a LC50 (the dosage of active material required to kill half of the test species) for the compound was calculated from the mortality figures and compared with the corresponding LC50 for a standard insecticide, ethyl parathion, in the same test. The results are expressed as toxicity indices thus: [formula] […]

Which mortality at 1000 µg/mL does the source give for `O=C(NC(=O)c1c(F)cccc1F)Nc1ccc2c(c1)COC(c1ccc(F)cc1F)S2` (centres unmarked) [Example 108] here?
Its mortality at 1000 µg/mL is 70 to 100%.

`O=C(NC(=O)c1c(F)cccc1F)Nc1ccc2c(c1)COC(c1c(Cl)cccc1Cl)S2` (centres unmarked) [Example 113] was tested. Which mortality at 1000 µg/mL did it give?
The mortality at 1000 µg/mL was 70 to 100%.

Tested on: Trialeurodes vaporariorum
Assay: whole plant or invertebrate
Assay type: in vivo, Trialeurodes vaporariorum (greenhouse whitefly)
Settings: 144 h, initial test concentration of 0.1% w (1000 ppm), 6 days, read-out: mortality grade T.v.
Method: as §1
Trialeurodes vaporariorum (greenhouse whitefly)
The test methods employed for each species appear below. In each test, unless otherwise stated, solutions or suspensions of test compound were made up over a range of concentrations in water (initially 0.1% w) containing 10%w acetone and 0.025% w "TRITON X-100" (trade mark) surface active agent (the condensation product of ethylene oxide with an alkyl phenol). These solutions were sprayed at a rate equivalent to 340 liters per hectare (3.4×10^-5 m^3 /m^2) onto Petri dishes containing either test species per se or diet onto which test species were subsequently introduced, as indicated. In some assays leaf discs infested with test species were sprayed whilst other assays involved the spraying of plants which were infested subsequently with test species after the spray solution had dried. The tests were all conducted under normal insectary conditions (23° C.±2° C., fluctuating humidity and light).
Mortality assessments were made as indicated below, in terms of percentage mortality figures. In each test a LC50 (the dosage of active material required to kill half of the test species) for the compound was calculated from the mortality figures and compared with the corresponding LC50 for a standard insecticide, ethyl parathion, in the same test. The results are expressed as toxicity indices thus: [formula] (i) Spodoptera littoralis (7 day)(Sl 7D) Test solutions were sprayed as indicated above onto Petri dishes containing a nutritious diet for Egyptian cotton leafworm larvae. When the spray deposit had dried, each dish was infested with ten 2nd instar larvae. Mortality assessments were made 7 days after spraying.
(iii) Trialeurodes vaporariorum (Tv)
French bean plants (Phaseolus vulgaris) with two fully expanded leaves were placed in a breeding culture of T.vaporariorum, also on French bean plants, which were then disturbed to ensure resettlement on the introduced plants. During the subsequent 24 hour period, eggs were deposited and kept at 27° C., with 14 hours photoperiod. All adult whiteflies were then carefully removed, leaving egg samples of a known age. After eight days the majority of eggs had hatched. Leaf discs containing the newly hatched nymphs were then cut from the leaves and transferred to moist filter paper. The discs were examined under a low-powered microscope to determine the exact number of 1st instar nymphs per disc and to remove any unhatched eggs. On average, 70-100 nymphs were found per disc. The discs were transferred into Petri dishes and sprayed with test solutions as described above. After 6 days percentage mortalities were assessed.

For `O=C(NC(=O)c1c(F)cccc1F)Nc1ccc2c(c1)CSC(c1ccc(Cl)cc1Cl)O2` (centres unmarked) [Example 98], which mortality at 1000 µg/mL is on record?
The mortality at 1000 µg/mL was 40 to 69%.

`O=C(NC(=O)c1c(F)cccc1F)Nc1ccc2c(c1)COC(c1ccc(Cl)cc1)O2` (centres unmarked) [Example 81] was tested. Which mortality at 1000 µg/mL did it give?
Its mortality at 1000 µg/mL is 40 to 69%.

`O=C(NC(=O)c1c(F)cccc1F)Nc1ccc2c(c1)COC(c1ccccc1Br)O2` (centres unmarked) [Example 87] was tested. Which mortality at 1000 µg/mL did it give?
The mortality at 1000 µg/mL was 40 to 69%.

How did the mortality at 1000 µg/mL turn out when `O=C(NC(=O)c1c(F)cccc1F)Nc1ccc2c(c1)OC(c1ccccc1Cl)O2` (centres unmarked) [Example 126] was run?
The mortality at 1000 µg/mL was 40 to 69%.

How did the mortality at 1000 µg/mL turn out when `O=C(NC(=O)c1c(F)cccc1F)Nc1ccc2c(c1)CSC(c1ccc(F)cc1F)O2` (centres unmarked) [Example 100] was run?
Its mortality at 1000 µg/mL is 40 to 69%.

With `O=C(NC(=O)c1c(F)cccc1F)Nc1ccc2c(c1)OC(c1ccc(F)cc1F)O2` (centres unmarked) [Example 135] as the molecule, how does the mortality at 1000 µg/mL read?
The mortality at 1000 µg/mL was 40 to 69%.

Which mortality at 1000 µg/mL does the source give for `Cc1ccccc1C1OCc2cc(NC(=O)NC(=O)c3c(F)cccc3F)ccc2S1` (centres unmarked) [Example 116] here?
The mortality at 1000 µg/mL was 40 to 69%.

`O=C(NC(=O)c1c(F)cccc1F)Nc1ccc2c(c1)CSC(c1ccccc1C(F)(F)F)O2` (centres unmarked) [Example 103] was tested. Which mortality at 1000 µg/mL did it give?
Its mortality at 1000 µg/mL is 40 to 69%.

For `CCOC(=O)CC1(c2ccccc2)Oc2ccc(NC(=O)NC(=O)c3c(F)cccc3F)cc2O1` (centres unmarked) [Example 140], which mortality at 1000 µg/mL is on record?
The mortality at 1000 µg/mL was 40 to 69%.

With `CC1(c2ccc(Cl)c(Cl)c2)Oc2ccc(NC(=O)NC(=O)c3c(F)cccc3F)cc2S1` (centres unmarked) [Example 152] as the molecule, how does the mortality at 1000 µg/mL read?
The mortality at 1000 µg/mL was 40 to 69%.

With `O=C(NC(=O)c1c(F)cccc1F)Nc1ccc2c(c1)OC(c1ccccc1)O2` (centres unmarked) [Example 125] as the molecule, how does the mortality at 1000 µg/mL read?
The mortality at 1000 µg/mL was 40 to 69%.

With `O=C(NC(=O)c1c(F)cccc1F)Nc1ccc2c(c1)OC(c1ccc(Cl)cc1)O2` (centres unmarked) [Example 128] as the molecule, how does the mortality at 1000 µg/mL read?
The mortality at 1000 µg/mL was 40 to 69%.

For `O=C(NC(=O)c1c(F)cccc1F)Nc1ccc2c(c1)COC(c1ccccc1Br)S2` (centres unmarked) [Example 115], which mortality at 1000 µg/mL is on record?
The mortality at 1000 µg/mL was 70 to 100%.

With `O=C(NC(=O)c1c(F)cccc1F)Nc1ccc2c(c1)COC(c1c(Cl)cccc1Cl)O2` (centres unmarked) [Example 84] as the molecule, how does the mortality at 1000 µg/mL read?
The mortality at 1000 µg/mL was 40 to 69%.

How did the mortality at 1000 µg/mL turn out when `O=C(NC(=O)c1c(F)cccc1F)Nc1ccc2c(c1)COC(c1ccc(Cl)c(Cl)c1)O2` (centres unmarked) [Example 83] was run?
Its mortality at 1000 µg/mL is 40 to 69%.

How did the mortality at 1000 µg/mL turn out when `O=C(NC(=O)c1c(F)cccc1F)Nc1ccc2c(c1)COC(c1c(Cl)cccc1Cl)S2` (centres unmarked) [Example 113] was run?
The mortality at 1000 µg/mL was 40 to 69%.

How did the mortality at 1000 µg/mL turn out when `O=C(NC(=O)c1c(F)cccc1F)Nc1ccc2c(c1)CSC(c1ccccc1F)O2` (centres unmarked) [Example 96] was run?
Its mortality at 1000 µg/mL is 40 to 69%.

`O=C(NC(=O)c1c(F)cccc1F)Nc1ccc2c(c1)SC(c1ccccc1F)O2` (centres unmarked) [Example 143] was tested. Which mortality at 1000 µg/mL did it give?
The mortality at 1000 µg/mL was 40 to 69%.

`O=C(NC(=O)c1c(F)cccc1F)Nc1ccc2c(c1)COC(c1ccc(OC(F)(F)F)cc1)O2` (centres unmarked) [Example 91] was tested. Which mortality at 1000 µg/mL did it give?
The mortality at 1000 µg/mL was 40 to 69%.

For `O=C(NC(=O)c1c(F)cccc1F)Nc1ccc2c(c1)CSC(c1ccccc1)O2` (centres unmarked) [Example 104], which mortality at 1000 µg/mL is on record?
Its mortality at 1000 µg/mL is 40 to 69%.

`O=C(NC(=O)c1c(F)cccc1F)Nc1ccc2c(c1)COC(c1ccccc1C(F)(F)F)S2` (centres unmarked) [Example 112] was tested. Which mortality at 1000 µg/mL did it give?
The mortality at 1000 µg/mL was 40 to 69%.

For `Cc1ccc(C2Oc3ccc(NC(=O)NC(=O)c4c(F)cccc4F)cc3CS2)cc1` (centres unmarked) [Example 102], which mortality at 1000 µg/mL is on record?
Its mortality at 1000 µg/mL is 40 to 69%.

Which mortality at 1000 µg/mL does the source give for `O=C(NC(=O)c1c(F)cccc1F)Nc1ccc2c(c1)COC(c1ccccc1Cl)O2` (centres unmarked) [Example 80] here?
Its mortality at 1000 µg/mL is 40 to 69%.

How did the mortality at 1000 µg/mL turn out when `O=C(NC(=O)c1c(F)cccc1F)Nc1ccc2c(c1)CSC(c1c(Cl)cccc1Cl)O2` (centres unmarked) [Example 99] was run?
Its mortality at 1000 µg/mL is 40 to 69%.

With `O=C(NC(=O)c1c(F)cccc1F)Nc1ccc2c(c1)COC(c1ccc(C(F)(F)F)cc1)O2` (centres unmarked) [Example 88] as the molecule, how does the mortality at 1000 µg/mL read?
The mortality at 1000 µg/mL was 40 to 69%.

`O=C(NC(=O)c1c(F)cccc1F)Nc1ccc2c(c1)OC(c1cccc(Cl)c1)O2` (centres unmarked) [Example 127] was tested. Which mortality at 1000 µg/mL did it give?
The mortality at 1000 µg/mL was 40 to 69%.

Tested on: Tetranychus urticae
Assay: Acaricidal activity (mite life cycle), Tetranychus urticae
Assay type: in vivo, Tetranychus urticae (glasshouse red spider mite)
Settings: larvae on leaf discs sprayed at 340 liters per hectare; emergence of adults after 7 days
Method: Acaricidal activity of some compounds of formula I was assessed, employing adult female glasshouse red spider mites, Tetranychus urticae (T.u.), by the following procedure.
2 cm diameter leaf discs cut from the leaves of French bean plants were placed, underside uppermost, on 5.5 cm diameter filter papers, kept moist by a cotton wool wick dipped in water.
Each leaf disc was infested with 25 to 30 adult female mites which were removed after 6 hours, leaving bout 50 eggs on each disc. Within 5 days the eggs hatched. The freshly emerged larvae on the leaf discs were sprayed with solutions of test compound made up as in Example 156 above, at a rate equivalent to 340 liters per hectare (3.4×10^-5 m^3 /m^2).
The discs were thereafter kept under normal laboratory conditions (23° C.±2° C., fluctuating humidity and 16 hours day length). After 7 days assessment was made of the number of mites emerging as adults.

For `O=C(NC(=O)c1c(F)cccc1F)Nc1ccc2c(c1)COC(c1ccccc1Br)O2` (centres unmarked) [Example 87], which “LC50 (% active ingredient in spray)” value is on record?
The value was 0.0029 % active ingredient in spray.

`O=C(NC(=O)c1c(F)cccc1F)Nc1ccc2c(c1)COC(c1ccc(C(F)(F)F)cc1Cl)O2` (centres unmarked) [Example 85] was tested. Which “LC50 (% active ingredient in spray)” value did it give?
The value was 0.00031 % active ingredient in spray.

Which “LC50 (% active ingredient in spray)” value does the source give for `O=C(NC(=O)c1c(F)cccc1F)Nc1ccc2c(c1)OC(c1ccc(C(F)(F)F)cc1)O2` (centres unmarked) [Example 134] here?
Its value is 0.09 % active ingredient in spray.

How did the “LC50 (% active ingredient in spray)” value turn out when `O=C(NC(=O)c1c(F)cccc1F)Nc1ccc2c(c1)COC(c1c(Cl)cccc1Cl)O2` (centres unmarked) [Example 84] was run?
Its value is 0.00036 % active ingredient in spray.

With `O=C(NC(=O)c1c(F)cccc1F)Nc1ccc2c(c1)SC(c1ccc(Cl)cc1Cl)O2` (centres unmarked) [Example 142, N-[[[2-(2,4-dichlorophenyl)-1,3-benzoxathiol-5-yl]amino]carbonyl]-2,6-difluorobenzamide] as the molecule, how does the “LC50 (% active ingredient in spray)” value read?
Its value is 0.0015 % active ingredient in spray.

`O=C(NC(=O)c1c(F)cccc1F)Nc1ccc2c(c1)COC(c1cccc(Cl)c1Cl)O2` (centres unmarked) [Example 92] was tested. Which “LC50 (% active ingredient in spray)” value did it give?
Its value is 0.085 % active ingredient in spray.

With `O=C(NC(=O)c1c(F)cccc1F)Nc1ccc2c(c1)COC(c1ccccc1C(F)(F)F)O2` (centres unmarked) [Example 93] as the molecule, how does the “LC50 (% active ingredient in spray)” value read?
Its value is 0.00022 % active ingredient in spray.

How did the “LC50 (% active ingredient in spray)” value turn out when `O=C(NC(=O)c1c(F)cccc1F)Nc1ccc2c(c1)SC(c1ccc(F)cc1F)O2` (centres unmarked) [Example 147] was run?
The value was 0.05 % active ingredient in spray.

For `O=C(NC(=O)c1c(F)cccc1F)Nc1ccc2c(c1)SC(c1ccc(Cl)c(Cl)c1)O2` (centres unmarked) [Example 145], which “LC50 (% active ingredient in spray)” value is on record?
Its value is 0.053 % active ingredient in spray.

`O=C(NC(=O)c1c(F)cccc1F)Nc1ccc2c(c1)COC(c1ccc(Cl)cc1Cl)O2` (centres unmarked) [Example 82] was tested. Which “LC50 (% active ingredient in spray)” value did it give?
Its value is 0.00023 % active ingredient in spray.
